Results as given in patent US20050255537A1, “Method for monitoring treatment with a parathyroid hormone” (priority 1999, published 2005).

Assays:
[1] = test system: BSAP and PICP serum levels, NTX urine levels; test: Example 1 clinical trial of rhPTH(1-34) in postmenopausal women: markers of bone formation and resorption; format: in vivo, human
Protocol: • Number of Subjects: • rhPTH(1-34): 1093 enrolled, 848 finished. • Placebo: 544 enrolled, 447 finished. • Diagnosis and Inclusion Criteria: Women ages 30 to 85 years, postmenopausal for a minimum of 5 years, with a minimum of one moderate or two mild atraumatic vertebral fractures. • Dosage and Administration: • Test Product (blinded) • rhPTH(1-34): 20 μg/day, given subcutaneously • rhPTH(1-34): 40 μg/day, given subcutaneously • Reference Therapy (blinded) • Placebo study material for injection • Duration of Treatment: • rhPTH(1-34): 17-23 months (excluding 6-month run-in phase) • Placebo: 17-23 months (excluding 6-month run-in phase) • Criteria for Evaluation: Spine x-ray; serum biological markers (calcium, bone-specific alkaline phosphatase, procollagen I carboxy-terminal propeptide); urine markers (calcium, N-telopeptide, free deoxypyridinoline); 1,25-dihydroxyvitamin D; bone mineral density: spine, hip, wrist, and total body: height; population pharmacokinetics; bone biopsy (selected study sites).
Measures of BSAP, PICP, and NTX levels were determined for each patient through the course of therapy, for example, at 0, 1, 3, 6, 12, 21 and 24 months after the initiation of administration of parathyroid hormone. Parathyroid hormone treatment was discontinued after 17-23 months. The percent change (relative to the initial “0” month levels) for each marker was determined for each patient and is reported in the Figures. The overall changes observed in the 20 μg/day PTH-treated patient population, the 40 μg/day PTH-treated treated patient population, and the placebo patient population were determined by methods known to those of skill in the arts.

[2] = test system: postmenopausal women; test: Example 4 population pharmacodynamic models of total lumbar spine and femoral neck BMD; format: in vivo, human
From the text: Data from the studies described in Examples 1-3 above were further analyzed to develop more detailed models for the use of bone markers in monitoring and predicting effects of PTH on clinically significant correlates of efficacy in the treatment of osteoporosis, such as bone mineral density (BMD). Population pharmacodynamic (PD) models were developed to describe total lumbar spine and femoral neck bone mineral density (BMD) responses in ˜1500 postmenopausal women enrolled in a phase 3 study of LY333334 [rhPTH(1-34)]. Serum LY333334 (LY), procollagen 1 carboxy-terminal propeptide (PICP) and bone specific alkaline phosphatase (B SAP) concentrations, and urinary excretion of N-telopeptide (NTX) and free deoxypyridinoline (DPD) were also measured in a subset of ˜350 patients. LY dose, average steady-state LY concentration, and early changes in markers of bone turnover were each evaluated for their ability to predict subsequent changes in BMD. […] Response was greatest in patients with increased fracture risk (i.e., older women with low BMD, low body weight, and high bone turnover at baseline). In the subset analysis, PICP was the strongest indicator of BMD response; an increase >101 pM after 1 month of therapy was always associated with a gain in spine BMD. NTX was also a better predictor of increase in BMD than LY dose, but dose predicted BMD response better than LY, BSAP or DPD concentrations (p<0.001).
Population pharmacodynamic models were developed individually for total lumber spine BMD, femoral neck BMD, procollagen 1 carboxy-terminal propeptide (PICP), bone specific alkaline phosphate (BSAP), urinary N-telopeptide (NTX), and urinary free deoxypyridinoline (DPD). These treatment-response models characterized change in the pharmacodynamic endpoints and identified significant patient factors influencing response to therapy.
The final treatment-response models for total lumbar spine and femoral neck BMD were used to calculate BMD values after 21 months of treatment for each patient, based on the individual's parameter estimates (empirical Bayesian estimates). Similarly, the final treatment-response models for each biochemical maker (PICP, BSAP, NTX, and DPD) were used to calculate concentration values after 1 month of treatment for each patient. These predicted BMD measurements were merged with the predicted biochemical marker concentrations for patients who completed at least 12 months of LY333334 therapy.
Biochemical marker response-indicator models were developed to characterize the relationship between the biochemical marker concentrations at 1 month and response to therapy, as measured by change in total lumbar spine and femoral neck BMD.
Population pharmacodynamic analyses were undertaken to evaluate the time course of the relationships between efficacy measures and LY333334 dose or LY333334 concentrations. […] As a part of this assessment, a population placebo-response model describing the change in BMD in patients randomly assigned to placebo (supplemented with calcium and vitamin D) was first developed. Patient-specific factors that explained some of the variability of that model were identified and included in the model. A pharmacodynamic model describing the therapeutic response was then developed for patients randomly assigned to LY333334 treatment using the placebo-response model as the baseline function. Thus, the progression of bone loss that occurs in osteoporosis patients receiving only calcium and vitamin D supplementation was separated from the effects of LY333334 treatment.

[3] = about 5-6 weeks following termination, about 21-24 months after initiation
[4] = 21 months, 20 and 40 μg groups together

Structure (SMILES): CC[C@H](C)[C@H](NC(=O)[C@H](CCC(=O)O)NC(=O)[C@H](CO)NC(=O)[C@@H](NC(=O)[C@@H](N)CO)C(C)C)C(=O)N[C@@H](CCC(N)=O)C(=O)N[C@@H](CC(C)C)C(=O)N[C@@H](CCSC)C(=O)N[C@@H](Cc1cnc[nH]1)C(=O)N[C@@H](CC(N)=O)C(=O)N[C@@H](CC(C)C)C(=O)NCC(=O)N[C@@H](CCCCN)C(=O)N[C@@H](Cc1cnc[nH]1)C(=O)N[C@@H](CC(C)C)C(=O)N[C@@H](CC(N)=O)C(=O)N[C@@H](CO)C(=O)N[C@@H](CCSC)C(=O)N[C@@H](CCC(=O)O)C(=O)N[C@@H](CCCN=C(N)N)C(=O)N[C@H](C(=O)N[C@@H](CCC(=O)O)C(=O)N[C@@H](Cc1c[nH]c2ccccc12)C(=O)N[C@@H](CC(C)C)C(=O)N[C@@H](CCCN=C(N)N)C(=O)N[C@@H](CCCCN)C(=O)N[C@@H](CCCCN)C(=O)N[C@@H](CC(C)C)C(=O)N[C@@H](CCC(N)=O)C(=O)N[C@@H](CC(=O)O)C(=O)N[C@H](C(=O)N[C@@H](Cc1cnc[nH]1)C(=O)N[C@@H](CC(N)=O)C(=O)N[C@@H](Cc1ccccc1)C(=O)O)C(C)C)C(C)C [LY333334]
- percent change in PICP serum levels during treatment ([1]; 20 μg/day and 40 μg/day PTH, FIG. 2): reached a peak within about one or two months
- percent change in NTX urine levels during treatment ([1]; 20 μg/day and 40 μg/day PTH, FIG. 3): increased steadily until about 12 months after treatment initiation
- BSAP level after termination of PTH treatment [1, 3]: returned to a level at or slightly higher than placebo control levels
- PICP level after termination of PTH treatment [1, 3]: returned to a level about the same as placebo controls
- percent change in NTX levels after termination of PTH treatment ([1]; about 21-24 months after initiation): declined and returned to levels similar to those observed in the placebo treated group
- final PD model predicted increase in hip (femoral neck) BMD ([2]; 40 μg/day, 21 months): ~5.2%
- final PD model predicted increase in total lumbar spine BMD ([2]; 40 μg/day, 21 months): ~14.6%
- treatment group model change from mean baseline femoral neck BMD ([2]; 20-μg group, 21 months): 2.8%
- treatment group model change from mean baseline spine BMD ([2]; 20-μg group, 21 months): 10.5%
- treatment group model predicted change in femoral neck BMD ([2]; 20-μg group, 21 months): 0.018 g/cm^2
- treatment group model predicted change in spine BMD ([2]; 20-μg group, 21 months): 0.086 g/cm^2
- base model change from mean baseline femoral neck BMD [2, 4]: 4.2%
- base model change from mean baseline spine BMD [2, 4]: 12.6%
- base model predicted increase in femoral neck BMD, typical treated patient ([2]; 21 months, 20 and 40 μg groups together, 272 patients): 0.027 g/cm^2
- base model predicted increase in spine BMD, typical treated patient ([2]; 21 months, 20 and 40 μg groups together, 276 patients): 0.103 g/cm^2
- treatment group model change from mean baseline femoral neck BMD ([2]; 40-μg group, 21 months): 5.3%
- treatment group model change from mean baseline spine BMD ([2]; 40-μg group, 21 months): 14.8%
- treatment group model predicted change in femoral neck BMD ([2]; 40-μg group, 21 months): 0.034 g/cm^2
- treatment group model predicted change in spine BMD ([2]; 40-μg group, 21 months): 0.121 g/cm^2
- subjects with a negative BMD response (spine BMD<0.00 g/cm^2) ([2]; from a total of 272, 21 months, FIG. 11): four
